Our source for the IC50 values is ChEMBL document CHEMBL3608236, “Understanding the chemistry behind the antioxidant activities of butylated hydroxytoluene (BHT): a review” (Eur J Med Chem, 2015).

Values after ≈ are worked out from the molar mass of the structure shown.

The data set can be described thus: Antioxidant activity assessed as hydrogen peroxide scavenging activity. In kind it is physicochemical.
The IC50 is the concentration at which inhibition is half-maximal. In the case of `Oc1ccc(-c2nnc(S)n2/N=C/c2ccccc2Cl)cc1`, the IC50 was determined as 60 µg/mL (≈ 181 µM).

Regarding `Oc1ccc(-c2nnc(S)n2/N=C/c2cccc(O)c2)cc1`, the IC50 was found to be 20 µg/mL (≈ 64 µM).

`O=[N+]([O-])c1cccc(/C=N/n2c(S)nnc2-c2ccc(O)cc2)c1`: the IC50 came to 38 µg/mL (≈ 111 µM).

Regarding `O=[N+]([O-])c1ccccc1/C=N/n1c(S)nnc1-c1ccc(O)cc1`, the half-inhibitory concentration (IC50) amounted to 32 µg/mL (≈ 93.7 µM).

For `Oc1ccc(-c2nnc(S)n2/N=C/c2ccccc2)cc1`, the IC50 was determined as 24 µg/mL (≈ 81 µM).
